Reference: patent US20140308317A1, “Polymeric Compounds And Methods Of Making And Using The Same” (CELLCEUTIX CORPORATION, priority 2012, published 2014)
In brackets after ≈: the same amount, converted by molar mass. Like-named read-outs stand apart in the source and are kept apart here.

Legend:
[1] = system: Staphylococcus aureus ATCC 27660; test: Minimum Inhibitory Concentration (MIC), modified microbroth dilution; type: cell-based; settings: S. aureus (27660); overnight incubation (18 hours)
[2] = system: HepG2, HB-8065; test: Cytotoxicity colorimetric (tetrazolium) assay; type: cell-based, human
Experimental: (§1) Cytotoxicity of the compounds was evaluated in a colorimetric assay using a transformed human liver cell line (HepG2, HB-8065) and an embryonic mouse cell line (NIH/3T3 cells, CRL-1658). This assay measures the bioreduction of a novel tetrazolium compound to a soluble formazan product by viable cells. HepG2 cells were seeded in 96 well plates at 2×10^4 cells/well in MEM medium with 10% fetal bovine serum (FBS) 24 hours prior to use. NIH/3T3 cells were seeded in 96 well plates at 2×10^4 cells/well in DMEM medium with 10% bovine calf serum (BCS) 24 hours prior to use. Cell monolayers were rinsed in serum-free media and incubated for one hour with compounds in serum-free media. After incubation, the media is replaced with serum supplemented media and live cells were measured using the Cell Titer 96 Aqueous […] Assay kit (Promega, Madison, Wis.). EC50 values were determined using a four parameter logistic equation: Y=Bottom+(Top-Bottom)/(1+10̂((LogEC50−X)*HillSlope)).
(§2) Actual results from a representative cytotoxicity assay are shown below in Table 2. Data is expressed as EC50 in μg/mL.

[3] = system: Pseudomonas aeruginosa ATCC 10145; test: Minimum Inhibitory Concentration (MIC), modified microbroth dilution; type: cell-based; settings: P. aeruginosa (10145); overnight incubation (18 hours)
[4] = system: Klebsiella pneumoniae ATCC 13883; test: as above; type: cell-based; settings: K. pneumoniae (13883); overnight incubation (18 hours)
[5] = system: E. Coli ATCC 25922; test: as above; type: cell-based; settings: E. coli (25922); overnight incubation (18 hours)
[6] = system: Enterococcus faecalis ATCC 29212; test: as above; type: cell-based; settings: E. faecalis (29212); overnight incubation (18 hours)
[7] = system: NIH/3T3 cells, CRL-1658; test: Cytotoxicity colorimetric (tetrazolium) assay; type: cell-based, mouse
Experimental: as §1, §2

[8] = HepG2 cells, one hour with compound in serum-free media
[9] = NIH/3T3 cells, one hour with compound in serum-free media

MIC50 S. aureus [1] [µg/mL]	MIC50 P. Aeruginosa [3] [µg/mL]	MIC50 K. Pnuemnoiae [4] [µg/mL]	MIC50 E. coli [5] [µg/mL]	MIC50 E. faecalis [6] [µg/mL]	SMILES	EC50 HepG2 (cytotoxicity) [2, 8] [µg/mL]	EC50 NIH 3T3 (cytotoxicity) [7, 9] [µg/mL]	EC50 HepG2 (cytotoxicity) [2] [µg/mL]	EC50 NIH 3T3 (cytotoxicity) [7] [µg/mL]
1.56 (≈ 3.49 µM)	25 (≈ 56 µM)	6.25 (≈ 14 µM)	6.25 (≈ 14 µM)	3.13 (≈ 7.01 µM)	NCCc1cccc(-c2ccc3c(c2)C(=O)c2cc(-c4cccc(CCN)c4)ccc2CC3)c1 [Compound 153]	80.6 (≈ 180 µM)	53.3 (≈ 119 µM)		
0.39 (≈ 0.732 µM)	25 (≈ 46.9 µM)	12.5 (≈ 23.5 µM)	6.25 (≈ 11.7 µM)	12.5 (≈ 23.5 µM)	c1cc(CN2CCNCC2)cc(-c2ccc3sc4ccc(-c5cccc(CN6CCNCC6)c5)cc4c3c2)c1 [Compound 175]	19.4 (≈ 36.4 µM)	19.9 (≈ 37.4 µM)		
6.25 (≈ 8.48 µM)	>100	>100	>100	>100	NCCCNC(=O)c1cc(C(=O)NCCCN)cc(-c2ccc3sc4ccc(-c5cc(C(=O)NCCCN)cc(C(=O)NCCCN)c5)cc4c3c2)c1 [Compound 171]	236 (≈ 320 µM)	46.5 (≈ 63.1 µM)		
1.56 (≈ 2.01 µM)	6.25 (≈ 8.06 µM)	12.5 (≈ 16.1 µM)	6.25 (≈ 8.06 µM)	6.25 (≈ 8.06 µM)	NCCCOc1cc(-c2ccc3sc4ccc(-c5cc(OCCCN)c(OCCCN)c(OCCCN)c5)cc4c3c2)cc(OCCCN)c1OCCCN [Compound 184]	100 (≈ 129 µM)	57 (≈ 73.5 µM)		
0.39 (≈ 0.614 µM)	3.13 (≈ 4.93 µM)	1.56 (≈ 2.46 µM)	1.56 (≈ 2.46 µM)	0.78 (≈ 1.23 µM)	NCCCOc1cc(OCCCN)cc(-c2cc(F)cc(-c3cc(F)cc(-c4cc(OCCCN)cc(OCCCN)c4)c3)c2)c1 [Compound 148]	244 (≈ 384 µM)	53.77 (≈ 84.7 µM)		
0.78 (≈ 1.14 µM)	12.5 (≈ 18.3 µM)	3.13 (≈ 4.58 µM)	1.56 (≈ 2.28 µM)	1.56 (≈ 2.28 µM)	N=C(N)NCCc1cc(CCNC(=N)N)cc(-c2cc(F)cc(-c3cc(F)cc(-c4cc(CCNC(=N)N)cc(CCNC(=N)N)c4)c3)c2)c1 [Compound 151]	254 (≈ 372 µM)	72.14 (≈ 106 µM)		
0.195 (≈ 0.313 µM)	6.25 (≈ 10 µM)	6.25 (≈ 10 µM)	3.13 (≈ 5.02 µM)	6.25 (≈ 10 µM)	NCCCN(CCCN)Cc1cccc(-c2ccc3sc4ccc(-c5cccc(CN(CCCN)CCCN)c5)cc4c3c2)c1 [Compound 181]	212 (≈ 340 µM)	83.1 (≈ 133 µM)		
0.78 (≈ 1.18 µM)	6.25 (≈ 9.43 µM)	3.13 (≈ 4.72 µM)	3.13 (≈ 4.72 µM)	1.56 (≈ 2.35 µM)	Cc1cc(-c2cc(OCCCN)cc(OCCCN)c2)cc(-c2cc(-c3cc(OCCCN)cc(OCCCN)c3)cc(C)c2F)c1F [Compound 149]	98.5 (≈ 149 µM)	59.19 (≈ 89.3 µM)		
1.56 (≈ 3.49 µM)	25 (≈ 56 µM)	6.25 (≈ 14 µM)	3.13 (≈ 7.01 µM)	3.13 (≈ 7.01 µM)	NCCc1cccc(-c2cc3c(c(-c4cccc(CCN)c4)c2)CCc2ccccc2C3=O)c1 [Compound 152]	27.5 (≈ 61.6 µM)	20.9 (≈ 46.8 µM)		
0.195 (≈ 0.344 µM)	3.13 (≈ 5.52 µM)	3.13 (≈ 5.52 µM)	3.13 (≈ 5.52 µM)	3.13 (≈ 5.52 µM)	NCCN(CCN)Cc1cccc(-c2ccc3sc4ccc(-c5cccc(CN(CCN)CCN)c5)cc4c3c2)c1 [Compound 174]	171 (≈ 302 µM)	149 (≈ 263 µM)		
3.13 (≈ 4.71 µM)	>50	>50	>50	>50	NCCNC(=O)c1cc(C(=O)NCCN)cc(-c2ccc3oc4ccc(-c5cc(C(=O)NCCN)cc(C(=O)NCCN)c5)cc4c3c2)c1 [Compound 168]	72.6 (≈ 109 µM)	32.4 (≈ 48.7 µM)		

The next lines start with the molecule.

SMILES	MIC50 S. aureus [1] [µg/mL]	MIC50 P. Aeruginosa [3] [µg/mL]	MIC50 K. Pnuemnoiae [4] [µg/mL]	MIC50 E. coli [5] [µg/mL]	MIC50 E. faecalis [6] [µg/mL]	EC50 HepG2 (cytotoxicity) [2, 8] [µg/mL]	EC50 NIH 3T3 (cytotoxicity) [7, 9] [µg/mL]	EC50 HepG2 (cytotoxicity) [2] [µg/mL]	EC50 NIH 3T3 (cytotoxicity) [7] [µg/mL]
NCC#Cc1cc(C#CCN)cc(-c2cc(-c3cc(C#CCN)cc(C#CCN)c3)cc(C(F)(F)F)c2)c1 [Compound 125]	12.5 (≈ 24.5 µM)	12.5 (≈ 24.5 µM)	25 (≈ 49 µM)	12.5 (≈ 24.5 µM)	12.5 (≈ 24.5 µM)		26.1 (≈ 51.1 µM)		
Cc1cc(-c2cc(OCCCN)cc(OCCCN)c2)cc(-c2cc(C)cc(-c3cc(OCCCN)cc(OCCCN)c3)c2)c1 [Compound 147]	0.39 (≈ 0.622 µM)	6.25 (≈ 9.97 µM)	1.56 (≈ 2.49 µM)	1.56 (≈ 2.49 µM)	0.78 (≈ 1.24 µM)	164 (≈ 262 µM)	50.94 (≈ 81.3 µM)		
NCCN(CCN)Cc1cccc(-c2ccc3[nH]c4ccc(-c5cccc(CN(CCN)CCN)c5)cc4c3c2)c1 [Compound 179]	1.56 (≈ 2.84 µM)	25 (≈ 45.5 µM)	>50	1.56 (≈ 2.84 µM)	>50	615 (≈ 1120 µM)	179 (≈ 326 µM)		
NCCCOc1cc(OCCCN)cc(-c2ccc(F)c(-c3cc(-c4cc(OCCCN)cc(OCCCN)c4)ccc3F)c2)c1 [Compound 145]	1.56 (≈ 2.46 µM)	12.5 (≈ 19.7 µM)	1.56 to 3.13	1.56 to 3.13	0.78 to 1.56	302 (≈ 476 µM)	146.3 (≈ 230 µM)		
NCCC#Cc1cc(-c2cc(OCCCN)cc(-c3cc(C#CCCN)cc(C(F)(F)F)c3)c2)cc(C(F)(F)F)c1 [Compound 122]	1.56 (≈ 2.72 µM)	12.5 (≈ 21.8 µM)	3.13 (≈ 5.46 µM)	3.13 (≈ 5.46 µM)	1.56 (≈ 2.72 µM)		14.5 (≈ 25.3 µM)		
O=C(Nc1ccc(-c2ccnc(N3CCNCC3)c2)cc1F)Nc1ccc(-c2ccnc(N3CCNCC3)c2)cc1F [Compound 142]	100 (≈ 175 µM)	25 (≈ 43.8 µM)	25 (≈ 43.8 µM)	12.5 (≈ 21.9 µM)		105 (≈ 184 µM)			
Nc1cccc(-c2ccc3[nH]c4ccc(-c5cccc(N)c5)cc4c3c2)c1 [Compound 177]	1.56 (≈ 4.46 µM)	12.5 (≈ 35.8 µM)	>50	1.56 (≈ 4.46 µM)	>50	>1000	487 (≈ 1390 µM)		
NCCN(CCN)Cc1ccc(F)c(-c2ccc3sc4ccc(-c5cc(CN(CCN)CCN)ccc5F)cc4c3c2)c1 [Compound 180]	0.098 (≈ 0.163 µM)	3.13 (≈ 5.19 µM)	1.56 (≈ 2.59 µM)	1.56 (≈ 2.59 µM)	3.13 (≈ 5.19 µM)	104 (≈ 173 µM)	43.1 (≈ 71.5 µM)		
N=C(N)NCC#Cc1cc(C#CCNC(=N)N)cc(-c2cc(-c3cc(C#CCNC(=N)N)cc(C#CCNC(=N)N)c3)cc(C(F)(F)F)c2)c1 [Compound 126]	1.56 (≈ 2.3 µM)	6.25 (≈ 9.21 µM)	6.25 (≈ 9.21 µM)	6.25 (≈ 9.21 µM)	1.56 (≈ 2.3 µM)		59.7 (≈ 88 µM)		
NCCCOc1cc(OCCCN)cc(-c2ccc3c(c2)c2ccccc2n3CCCN)c1 [Compound 161]	25 (≈ 56 µM)	50 (≈ 112 µM)	>50	>50	3.13 (≈ 7.01 µM)			790 (≈ 1770 µM)	>1000
N=C(N)NCCCc1cccc(-c2cc(-c3cccc(CCCNC(=N)N)c3)cc(C(F)(F)F)c2)c1 [Compound 114]	0.78 (≈ 1.57 µM)	12.5 (≈ 25.2 µM)	3.13 (≈ 6.3 µM)	3.13 (≈ 6.3 µM)	1.56 (≈ 3.14 µM)	60.6 (≈ 122 µM)	83.5 (≈ 168 µM)		
